Test results as given in US6951856B2, “Arylethene-sulfonamides” (Actelion Pharmaceuticals Ltd., priority 2000, dated 2005).
Read-outs that look alike come from different tables or passages of the source.

Assays:
[1] = molecular target: T1, human recombinant ETA receptors (Homo sapiens, UniProt P25101); test: Inhibition of [125I]ET-1 binding to membranes from CHO cells carrying human ETA receptors; conditions: CHO cell membranes, 8 pM [125I]ET-1, 2 h at 20° C.
T1 construct: expressed in transfected cells; host or cells: CHO cells (microsomal membranes)
T1 sequence (P25101 21-427): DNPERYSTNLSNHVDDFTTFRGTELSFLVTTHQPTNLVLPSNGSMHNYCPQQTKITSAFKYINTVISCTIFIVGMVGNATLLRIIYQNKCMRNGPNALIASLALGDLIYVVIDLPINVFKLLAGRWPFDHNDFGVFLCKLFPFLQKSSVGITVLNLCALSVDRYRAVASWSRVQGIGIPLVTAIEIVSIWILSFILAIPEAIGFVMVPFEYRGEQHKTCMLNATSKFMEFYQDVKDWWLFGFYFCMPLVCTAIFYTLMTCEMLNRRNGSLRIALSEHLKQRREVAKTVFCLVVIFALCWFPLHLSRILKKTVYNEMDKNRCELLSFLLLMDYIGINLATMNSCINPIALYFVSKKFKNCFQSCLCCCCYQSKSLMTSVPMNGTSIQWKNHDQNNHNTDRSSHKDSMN
Experimental: (§1) 1) Inhibition of Endothelin Binding to Membranes from CHO Cells Carrying Human ET Receptors
(§2) For competition binding studies, membranes of CHO cells expressing human recombinant ETA or ETB receptors were used. Microsomal membranes from recombinant CHO cells were prepared and the binding assay made as previously described (Breu V., et al, FEBS Lett 1993; 334:210).
(§3) The assay was performed in 200 uL 50 mM Tris/HCl buffer, pH 7.4, including 25 mM MnCl2, 1 mM EDTA and 0.5% (w/v) BSA in polypropylene microtiter plates. […] After 2 h, the membranes were filtered on filterplates containing GF/C filters (Unifilterplates from Canberra Packard S.A. Zürich, Switzerland). To each well, 50 uL of scintillation cocktail was added (MicroScint 20, Canberra Packard S.A. Zürich, Switzerland) and the filter plates counted in a microplate counter (TopCount, Canberra Packard S.A. Zürich, Switzerland).
(§4) All the test compounds were dissolved, diluted and added in DMSO.

[2] = molecular target: T2, human recombinant ETB receptors (Homo sapiens, UniProt P24530); test: Inhibition of [125I]ET-1 binding to membranes from CHO cells carrying human ETB receptors
T2 construct: expressed in transfected cells; host or cells: CHO cells (microsomal membranes)
T2 sequence (P24530 27-442): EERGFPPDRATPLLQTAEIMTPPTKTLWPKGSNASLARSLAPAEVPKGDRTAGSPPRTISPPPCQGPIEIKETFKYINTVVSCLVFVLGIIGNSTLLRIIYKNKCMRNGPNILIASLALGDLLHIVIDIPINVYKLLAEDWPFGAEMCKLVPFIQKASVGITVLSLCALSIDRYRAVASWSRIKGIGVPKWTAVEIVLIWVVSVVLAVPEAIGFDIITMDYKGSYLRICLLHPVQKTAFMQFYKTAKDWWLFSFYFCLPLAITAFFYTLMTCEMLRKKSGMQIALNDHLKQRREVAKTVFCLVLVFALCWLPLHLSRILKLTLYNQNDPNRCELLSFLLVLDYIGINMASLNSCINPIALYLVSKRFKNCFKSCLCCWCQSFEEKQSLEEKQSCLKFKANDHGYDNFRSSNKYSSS
Experimental: as §1, §2, §3, §4

ETA receptors = molecular target: T3, ETA receptors (Rattus norvegicus, UniProt P26684); test: Inhibition of endothelin-1-induced contractions on isolated rat aortic rings; assay type: cell-based
T3 construct: The thoracic aorta or trachea were excised, dissected and cut in 3-5 mm rings; from tissue; host or cells: thoracic aorta rings of adult Wistar rats, endothelium removed
T3 sequence (P26684 21-426): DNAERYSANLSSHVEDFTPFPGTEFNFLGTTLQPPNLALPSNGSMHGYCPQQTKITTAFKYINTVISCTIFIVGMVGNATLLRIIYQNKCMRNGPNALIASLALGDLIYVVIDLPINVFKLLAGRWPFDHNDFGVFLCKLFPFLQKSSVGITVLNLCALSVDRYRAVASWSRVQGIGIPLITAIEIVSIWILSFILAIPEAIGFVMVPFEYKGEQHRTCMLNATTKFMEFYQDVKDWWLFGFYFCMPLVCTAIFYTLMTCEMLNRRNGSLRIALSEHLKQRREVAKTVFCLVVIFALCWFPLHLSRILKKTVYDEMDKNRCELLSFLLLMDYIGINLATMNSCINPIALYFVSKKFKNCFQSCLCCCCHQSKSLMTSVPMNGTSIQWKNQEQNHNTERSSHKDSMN
Experimental: (§5) 2) Inhibition of Endothelin-Induced Contractions on Isolated Rat Aortic Rings (ETA Receptors) and Rat Tracheal Rings (ETB Receptors):
(§6) Adult Wistar rats were anesthetized and exsanguinated. The thoracic aorta or trachea were excised, dissected and cut in 3-5 mm rings. The endothelium/epithelium was removed by gentle rubbing of the intimal surface. Each ring was suspended in a 10 ml isolated organ bath filled with Krebs-Henseleit solution (in mM; NaCl 115, KCl 4.7, MgSO4 1.2, KH2PO4 1.5, NaHCO3 25, CaCl2 2.5, glucose 10) kept at 37° and gassed with 95% O2 and 5% CO2. The rings were connected to force transducers and isometric tension was recorded (EMKA Technologies SA, Paris, France). The rings were stretched to a resting tension of 3 g (aorta) or 2 g (trachea). […] The functional inhibitory potency of the test compound was assessed by calculating the concentration ratio, i.e. the shift to the right of the EC50 induced by different concentrations of test compound. EC50 is the concentration of endothelin needed to get a half-maximal contraction, pA2 is the negative logarithm of the antagonist concentration which induces a two-fold shift in the EC50 value.

ETB receptors = molecular target: T4, ETB receptors (Rattus norvegicus, UniProt P21451); test: Inhibition of sarafotoxin S6c-induced contractions on isolated rat tracheal rings; assay type: cell-based
T4 construct: The thoracic aorta or trachea were excised, dissected and cut in 3-5 mm rings; from tissue; host or cells: tracheal rings of adult Wistar rats, epithelium removed
T4 sequence (P21451 27-442): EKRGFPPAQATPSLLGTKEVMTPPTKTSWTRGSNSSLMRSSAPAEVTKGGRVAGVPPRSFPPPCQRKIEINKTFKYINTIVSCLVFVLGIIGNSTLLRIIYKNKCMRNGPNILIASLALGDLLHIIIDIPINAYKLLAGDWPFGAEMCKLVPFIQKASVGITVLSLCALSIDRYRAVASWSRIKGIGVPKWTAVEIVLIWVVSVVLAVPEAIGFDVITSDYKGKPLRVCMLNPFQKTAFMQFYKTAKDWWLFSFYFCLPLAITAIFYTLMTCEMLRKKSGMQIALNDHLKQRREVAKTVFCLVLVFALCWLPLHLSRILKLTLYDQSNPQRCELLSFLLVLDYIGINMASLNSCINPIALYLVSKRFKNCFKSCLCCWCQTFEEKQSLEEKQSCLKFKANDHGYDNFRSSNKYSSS
Experimental: as §5, §6

[3] = read-out: pA2 value ETA (converted)

Q: With `COc1ccccc1Oc1c(NS(=O)(=O)/C=C/c2ccccc2)nc(N2CCOCC2)nc1OCCOc1ncc(Br)cn1` [Example 193] as the molecule, how does the IC50 [1] read?
A: 2.6 nM

Q: What about the IC50 [2] of the same molecule?
A: 537 nM

Q: What about the Kb (ETA receptors; [3]) of the same molecule?
A: 2.51 nM

Q: And the Kb (ETB receptors)?
A: 126 nM

Q: For `COc1ccccc1Oc1c(NS(=O)(=O)/C=C/c2ccccc2)nc(N2CCOCC2)nc1OCCOc1ncc(Cl)cn1` [Example 195], which IC50 [1] is on record?
A: 6 nM

Q: And the IC50 [2]?
A: 293 nM

Q: What about the Kb (ETA receptors; [3]) of the same molecule?
A: 9.12 nM

Q: Which IC50 [1] does the source give for `Cc1ccc(-c2c(NS(=O)(=O)/C=C/c3ccccc3)ncnc2OCCOc2ncc(Cl)cn2)cc1` [Example 14] here?
A: 4.75 nM

Q: And the IC50 [2]?
A: 841 nM

Q: What about the Kb (ETA receptors; [3]) of the same molecule?
A: 2.14 nM

Q: Which IC50 [1] does the source give for `Cc1ccc(-c2c(NS(=O)(=O)/C=C/c3ccccc3)nc(-c3ncccn3)nc2OCCOc2ncc(Br)cn2)cc1` [Example 140] here?
A: 12.5 nM

Q: And the IC50 [2]?
A: 1090 nM

Q: And the Kb (ETA receptors; [3])?
A: 1.86 nM

Q: How did the IC50 [1] turn out when `O=S(=O)(/C=C/c1ccccc1)Nc1ncnc(OCCOc2ncc(Br)cn2)c1-c1ccc(Cl)cc1` [Example 43] was run?
A: 4.6 nM

Q: What about the IC50 [2] of the same molecule?
A: 408 nM

Q: What about the Kb (ETA receptors; [3]) of the same molecule?
A: 0.851 nM

Q: `COc1ccccc1Oc1c(NS(=O)(=O)/C=C/c2cccs2)nc(-c2ccncc2)nc1OCCOc1ncc(Br)cn1` [Example 173] was tested. Which IC50 [1] did it give?
A: 4.2 nM

Q: What about the IC50 [2] of the same molecule?
A: 976 nM

Q: What about the Kb (ETA receptors; [3]) of the same molecule?
A: 1.48 nM

Q: And the Kb (ETB receptors)?
A: 79.4 nM

Q: With `Cc1ccc(-c2c(NS(=O)(=O)/C=C/c3cccs3)ncnc2OCCOc2ncc(Br)cn2)cc1` [Example 67] as the molecule, how does the IC50 [1] read?
A: 7.8 nM

Q: What about the IC50 [2] of the same molecule?
A: 752 nM

Q: And the Kb (ETA receptors; [3])?
A: 0.316 nM

Q: How did the IC50 [1] turn out when `COc1ccccc1Oc1c(NS(=O)(=O)/C=C/c2ccccc2)nc(-c2ncccn2)nc1OCCOc1ncccn1` [Example 152] was run?
A: 43.3 nM

Q: What about the IC50 [2] of the same molecule?
A: 4820 nM

Q: What about the Kb (ETA receptors; [3]) of the same molecule?
A: 20.4 nM

Q: What about the Kb (ETB receptors) of the same molecule?
A: 912 nM

Q: How did the IC50 [1] turn out when `COc1ccccc1Oc1c(NS(=O)(=O)/C=C/c2ccccc2)nc(N2CCOCC2)nc1OCCOc1ncccn1` [Example 194] was run?
A: 7.8 nM

Q: What about the IC50 [2] of the same molecule?
A: 627 nM

Q: And the Kb (ETA receptors; [3])?
A: 31.6 nM

Q: What about the Kb (ETB receptors) of the same molecule?
A: 316 nM

Q: Which results are given for `COc1ccccc1Oc1c(NS(=O)(=O)/C=C/c2ccccc2)nc(N2CCOCC2)nc1OCCOc1ncc(F)cn1` [Example 196]?
A: IC50 [1]: 4.7 nM; IC50 [2]: 427 nM; Kb (ETA receptors; [3]): 20.9 nM

Q: What does the source list for `O=S(=O)(/C=C/c1ccccc1)Nc1ncnc(OCCOc2ncc(Br)cn2)c1-c1ccccc1` [Example 92]?
A: IC50 [1]: 20 nM; IC50 [2]: 7470 nM; Kb (ETA receptors; [3]): 12.3 nM

Q: `COc1ccccc1Oc1c(NS(=O)(=O)/C=C/c2ccccc2)ncnc1OCCOc1ncc(Br)cn1` [Example 211] was tested. Which IC50 [1] did it give?
A: 38 nM

Q: And the IC50 [2]?
A: 2640 nM

Q: What about the Kb (ETA receptors; [3]) of the same molecule?
A: 24.5 nM

Q: What about the Kb (ETB receptors) of the same molecule?
A: 224 nM

Q: What does the source list for `Cc1ccc(-c2c(NS(=O)(=O)/C=C/c3ccccc3)nc(-c3ccncc3)nc2OCCOc2ncc(Br)cn2)cc1` [Example 80]?
A: IC50 [1]: 19.7 nM; IC50 [2]: 2570 nM; Kb (ETA receptors; [3]): 4.47 nM; Kb (ETB receptors): 6170 nM

Q: `O=S(=O)(/C=C/c1ccccc1)Nc1ncnc(OCCOc2ncc(Br)cn2)c1-c1ccc(Br)cc1` [Example 85] was tested. Which IC50 [1] did it give?
A: 3.8 nM

Q: What about the IC50 [2] of the same molecule?
A: 238 nM

Q: And the Kb (ETA receptors; [3])?
A: 0.851 nM

Q: `Cc1ccc(-c2c(NS(=O)(=O)/C=C/c3ccccc3)ncnc2OCCOc2ncc(Br)cn2)cc1` [Example 1, 2-phenyl-ethenesulfonic acid {6-[2-(5-bromo-pyrimidin-2-yloxy)-ethoxy]-5-p-tolyl-pyrimidin-4-yl}-amide] was tested. Which IC50 [1] did it give?
A: 1.8 nM

Q: What about the IC50 [2] of the same molecule?
A: 569 nM

Q: And the Kb (ETA receptors)?
A: 1.86 nM

Q: And the Kb (ETB receptors)?
A: 81.3 nM

Q: For `COc1ccccc1Oc1c(NS(=O)(=O)/C=C/c2cccs2)nc(-c2ccncc2)nc1OCCOc1ncccn1` [Example 174], which IC50 [1] is on record?
A: 6.7 nM

Q: And the IC50 [2]?
A: 1010 nM

Q: And the Kb (ETA receptors; [3])?
A: 13.2 nM
